Reference: patent US20060165654A1, “Peptides and recombinant proteins mimicking interferons” (priority 2002, published 2006)
Entries after “also recorded” stand apart in the source; their conditions may differ.

Columns and labels:
[1] = system: virus of mouse encephalomiocarditis; test: antiviral activity: suppression of cytopathic action of test-virus in L-41 and VERO cell cultures; assay type: cell-based; settings: L-41 and VERO cells
Procedure: FIG. 7 Antiviral properties of de novo proteins and interferons in cell cultures L41 (human mononuclear leucosis) and VERO (kidney of green simian). The activity of preparations was determined as a minimal concentration leading to a 50% delay of the virus of mouse encephalomiocarditis cytopathic action. The average values of three independent experiments are shown ± the standard deviations.
FIG. 8 Antiviral properties of de novo proteins in the cell cultures L-41 (human mononuclear leucosis) and VERO (kidney of green simian). […] The average values of three independent experiments are shown ± standard deviations.
The average values of three independent experiments are shown ± standard deviations.
(§1) Antiviral and cytotoxity properties of obtained proteins. Testing of antiviral activity of the proteins was carried out in vitro monitoring the ability of the preparation to suppress cytopathic action of the test-virus (Ershov F., 1996, Interferon system: norm and pathology, Moscow, Medicine). Two cell lines were used in experiments: cells of human mononuclear leucosis L41 and green simian kidney VERO.
as §1, with “Antiviral” for “Antiviral and cytotoxity”, “synthetic linear peptides.” for “obtained proteins.”, “synthetic linear peptides” for “proteins”, “L-41” for “L41”

[2] = system: human T-lymphoblastoid cell line MT4; settings: cited from earlier work

Row | Substance | antiviral activity (in words) [1] | concentrations suppressing proliferation of MT4 [2] | antiviral activity compared with human interferon-α2 ([1]; minimal concentration giving 50% delay of cytopathic action)
1 | LKEKKYSP (human interferon alfa2) [reference compound] | demonstration of antiviral activity | 10^−9-10^−8 M | 
2 | LKDRHDF (human interferon alfa2) | demonstration of antiviral activity |  | 
3 | LKEKKYSP-Ser-Ser-LKDRHDF (LKEKKYSPSSLKDRHDF; human interferon alfa2) | demonstration of antiviral activity |  | only one order of magnitude less; also recorded: practically completely reproduces antiviral properties of human interferon-α2
